Experimental data from ChEMBL document CHEMBL3421530, “Azepinone-Containing Tetrapeptide Analogues of Melanotropin Lead to Selective hMC4R Agonists and hMC5R Antagonist” (ACS Med Chem Lett, 2015).
pEC50, pIC50: −log10 of the molar value.

Columns and labels:
Melanocortin receptor 4 [1] = target: T1, Melanocortin receptor 4 (Homo sapiens, UniProt P32245); test: Displacement of [125I]-NDP-alpha-MSH from human MC4 receptor expressed in HEK293 cells by gamma counting analysis; assay type: cell-based
T1 sequence (P32245 whole entry): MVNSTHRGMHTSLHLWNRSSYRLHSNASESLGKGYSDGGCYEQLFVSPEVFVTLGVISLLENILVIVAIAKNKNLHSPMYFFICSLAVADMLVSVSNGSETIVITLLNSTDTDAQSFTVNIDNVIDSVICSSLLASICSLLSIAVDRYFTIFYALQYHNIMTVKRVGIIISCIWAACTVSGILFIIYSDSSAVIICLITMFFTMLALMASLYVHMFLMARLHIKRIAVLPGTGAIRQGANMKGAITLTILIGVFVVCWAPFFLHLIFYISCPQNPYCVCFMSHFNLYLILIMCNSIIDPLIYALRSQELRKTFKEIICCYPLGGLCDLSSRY

Melanocortin receptor 3 [2] = target: T2, Melanocortin receptor 3 (Homo sapiens, UniProt P41968); test: Activity at human MC3 receptor expressed in HEK293 cells assessed as cAMP accumulation by luminescence counter; assay type: functional, cell-based; settings: for pEC50: read-out: EC50
T2 sequence (P41968 whole entry): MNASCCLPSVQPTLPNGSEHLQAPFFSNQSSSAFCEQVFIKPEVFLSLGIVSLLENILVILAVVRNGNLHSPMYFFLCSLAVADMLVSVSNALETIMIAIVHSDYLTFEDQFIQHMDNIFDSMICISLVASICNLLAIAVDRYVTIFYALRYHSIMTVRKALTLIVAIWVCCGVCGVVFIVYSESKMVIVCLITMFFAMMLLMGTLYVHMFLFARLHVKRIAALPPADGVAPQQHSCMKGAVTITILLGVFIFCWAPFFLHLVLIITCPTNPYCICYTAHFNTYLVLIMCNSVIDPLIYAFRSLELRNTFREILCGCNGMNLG

Melanocortin receptor 5 [3] = target: T3, Melanocortin receptor 5 (Homo sapiens, UniProt P33032); test: Displacement of [125I]-NDP-alpha-MSH from human MC5 receptor expressed in HEK293 cells at 10 uM by gamma counting analysis; assay type: cell-based
T3 sequence (P33032 whole entry): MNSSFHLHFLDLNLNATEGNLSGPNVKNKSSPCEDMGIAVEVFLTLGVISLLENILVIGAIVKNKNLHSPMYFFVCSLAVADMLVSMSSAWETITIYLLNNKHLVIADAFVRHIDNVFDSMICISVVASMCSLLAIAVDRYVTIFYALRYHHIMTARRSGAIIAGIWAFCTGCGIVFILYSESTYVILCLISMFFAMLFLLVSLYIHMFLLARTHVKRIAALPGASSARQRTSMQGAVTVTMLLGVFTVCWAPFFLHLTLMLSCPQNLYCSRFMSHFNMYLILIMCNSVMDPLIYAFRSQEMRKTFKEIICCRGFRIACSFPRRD

[4] = target: T4, Melanocyte-stimulating hormone receptor (Homo sapiens, UniProt Q01726); test: Displacement of [125I]-NDP-alpha-MSH from human MC1 receptor expressed in HEK293 cells at 10 uM by gamma counting analysis; assay type: cell-based
Target sequence in this assay (Q01726 whole entry, looked up): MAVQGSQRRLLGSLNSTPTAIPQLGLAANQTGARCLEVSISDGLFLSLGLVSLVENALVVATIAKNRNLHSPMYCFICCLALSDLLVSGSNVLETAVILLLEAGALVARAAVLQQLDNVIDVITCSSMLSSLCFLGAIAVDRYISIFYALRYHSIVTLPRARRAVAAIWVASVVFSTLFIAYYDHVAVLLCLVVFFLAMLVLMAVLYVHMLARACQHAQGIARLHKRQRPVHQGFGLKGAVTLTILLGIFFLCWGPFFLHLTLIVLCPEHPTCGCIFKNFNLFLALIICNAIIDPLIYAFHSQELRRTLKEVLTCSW

Melanocortin receptor 4 [5] = target: T1, Melanocortin receptor 4; test: Agonist activity at human MC4 receptor expressed in HEK293 cells assessed as cAMP accumulation at 10 uM by luminescence counter relative to MT-II; assay type: functional, cell-based
[6] = target: T4, Melanocyte-stimulating hormone receptor; test: Activity at human MC1 receptor expressed in HEK293 cells assessed as cAMP accumulation at 10 uM by luminescence counter relative to MT-II; assay type: functional, cell-based
Target sequence in this assay (Q01726 whole entry, looked up): as above

Melanocortin receptor 3 [7] = target: T2, Melanocortin receptor 3; test: Displacement of [125I]-NDP-alpha-MSH from human MC3 receptor expressed in HEK293 cells at 10 uM by gamma counting analysis; assay type: cell-based
Melanocortin receptor 4 [8] = target: T1, Melanocortin receptor 4; test: Displacement of [125I]-NDP-alpha-MSH from human MC4 receptor expressed in HEK293 cells at 10 uM by gamma counting analysis; assay type: cell-based
[9] = target: T4, Melanocyte-stimulating hormone receptor; test: Displacement of [125I]-NDP-alpha-MSH from human MC1 receptor expressed in HEK293 cells by gamma counting analysis; assay type: cell-based
Target sequence in this assay (Q01726 whole entry): as the sequence (Q01726 whole entry, looked up) above

[10] = Retention time of the compound; assay type: physicochemical
Melanocortin receptor 3 [11] = target: T2, Melanocortin receptor 3; test: Activity at human MC3 receptor expressed in HEK293 cells assessed as cAMP accumulation at 10 uM by luminescence counter relative to MT-II; assay type: functional, cell-based
Melanocortin receptor 5 [12] = target: T3, Melanocortin receptor 5; test: Displacement of [125I]-NDP-alpha-MSH from human MC5 receptor expressed in HEK293 cells by gamma counting analysis; assay type: cell-based
Melanocortin receptor 4 [13] = target: T1, Melanocortin receptor 4; test: Agonist activity at human MC4 receptor expressed in HEK293 cells assessed as cAMP accumulation by luminescence counter; assay type: functional, cell-based
Melanocortin receptor 5 [14] = target: T3, Melanocortin receptor 5; test: Antagonist activity at human MC5 receptor expressed in HEK293 cells assessed as cAMP accumulation by luminescence counter; assay type: functional, cell-based; settings: for EC50: hek293
[15] = target: T4, Melanocyte-stimulating hormone receptor; test: Activity at human MC1 receptor expressed in HEK293 cells assessed as cAMP accumulation by luminescence counter; assay type: functional, cell-based; settings: for pEC50: read-out: EC50
Target sequence in this assay (Q01726 whole entry): as the sequence (Q01726 whole entry, looked up) above

Melanocortin receptor 3 [16] = target: T2, Melanocortin receptor 3; test: Displacement of [125I]-NDP-alpha-MSH from human MC3 receptor expressed in HEK293 cells by gamma counting analysis; assay type: cell-based; settings: for pIC50: read-out: IC50
Melanocortin receptor 5 [17] = target: T3, Melanocortin receptor 5; test: Antagonist activity at human MC5 receptor expressed in HEK293 cells assessed as cAMP accumulation at 10 uM by luminescence counter relative to MT-II; assay type: functional, cell-based; set-up: scale not given: the % may be the effect or the level left

SMILES	pIC50 (Melanocortin receptor 4 [1])	pEC50 (Melanocortin receptor 3 [2])	%max (Melanocortin receptor 5 [3])	%max [4]	Activity (Melanocortin receptor 4 [5])	Activity [6]	%max (Melanocortin receptor 3 [7])	%max (Melanocortin receptor 4 [8])	pIC50 [9]	Retention_time [10]	Activity (Melanocortin receptor 3 [11])	pIC50 (Melanocortin receptor 5 [12])	pEC50 (Melanocortin receptor 4 [13])	EC50 (Melanocortin receptor 5 [14])	pEC50 [15]	pIC50 (Melanocortin receptor 3 [16])	Activity (Melanocortin receptor 5 [17])	further results
CC(=O)N[C@H]1Cc2ccccc2CN([C@H](Cc2ccccc2)C(=O)N[C@@H](CCCNC(=N)N)C(=O)N[C@@H](Cc2c[nH]c3ccccc23)C(N)=O)C1=O	6.66	7.23	75%	80%	80%	70%	59%	80%	6.23	13.35 min	40%	7.43	6.64	Not Active	6.00	< 5.70	0%	
CC(=O)N[C@H]1Cc2c([nH]c3ccccc23)CN([C@H](Cc2ccc(Br)cc2)C(=O)N[C@@H](CCCNC(=N)N)C(=O)N[C@@H](Cc2c[nH]c3ccccc23)C(N)=O)C1=O	6.70	5.61	100%	80%	80%	100%	100%	100%	6.52	14.85 min	50%	7.15	9.52	Not Active	6.15	7.00	0%	
CC(=O)N[C@H]1Cc2c([nH]c3ccccc23)CN([C@H](Cc2ccc(F)cc2)C(=O)N[C@@H](CCCNC(=N)N)C(=O)N[C@@H](Cc2c[nH]c3ccccc23)C(N)=O)C1=O	8.19		80%	40%	100%	50%	50%	80%	6.59	13.94 min	0%	6.78	7.89		6.65	5.30	50%	EC50 (Melanocortin receptor 3 [2]; hek293): Not Active; pEC50 (Melanocortin receptor 5 [14]; read-out: EC50): 5.39
CC(=O)N[C@H]1Cn2nncc2CN([C@H](Cc2ccccc2)C(=O)N[C@@H](CCCNC(=N)N)C(=O)N[C@@H](Cc2c[nH]c3ccccc23)C(N)=O)C1=O	6.70	7.26	70%	60%	80%	100%	55%	80%	5.34	10.43 min	20%	6.86	6.69	Not Active	6.12	6.00	0%	
CC(=O)N[C@H]1Cc2c([nH]c3ccccc23)CN([C@H](Cc2ccccc2)C(=O)N[C@@H](CCCNC(=N)N)C(=O)N[C@@H](Cc2c[nH]c3ccccc23)C(N)=O)C1=O	6.35	7.28	80%	50%	51%	0%		50%	5.87	13.05 min	20%	6.20	9.52	Not Active			0%	EC50 ([15]; hek293): Not Active; IC50 (Melanocortin receptor 3 [16]; hek293): Not Active
